Test results taken from patent US20130122541A1, “MICROORGANISM PRODUCTION OF HIGH-VALUE CHEMICAL PRODUCTS, AND RELATED COMPOSITIONS, METHODS AND SYSTEMS” (The Regents of the University of Colorado, priority 2010, published 2013).
Where two headings read alike, the source gives them in different places.

System: E. coli
Experiment: microbe, parasite or virus in culture
Assay type: cell-based
Settings: for MIC: Escherichia coli, BW25113, read-out: MIC Assay Result (g/L 3-HP), aerobic; for % Increase Over Control: aerobic
Protocol: For MIC evaluations, the final results are expressed in chemical agent concentrations determined by analysis of the stock solution by HPLC (i.e., see Subsection IIIb).
The minimum inhibitory concentration (MIC) was determined aerobically in a 96 well-plate format. […] Media supplements were added according to levels reported in the Supplements Table, where specified. Overnight cultures of strains were grown in triplicate in 5 mL LB (with antibiotic where appropriate). A 1% (v/v) inoculum was introduced into a 5 ml culture of M9 minimal media.

Q: Which MIC (strain BX_00325.0: BW25113 wild type, pJ61-asd, M9 + Kan 20 μg/mL) does the source give for `O=C(O)CCO` [3-HP, 3-hydroxypropionic acid] here?
A: 35 g/L

Q: What about the MIC (strain BX_00326.0: BW25113 wild type, pJ61-ilvA, M9 + Kan 20 μg/mL) of the same compound?
A: 35 g/L

Q: What about the MIC (strain BX_00327.0: BW25113 wild type, pJ61-cysM, M9 + Kan 20 μg/mL) of the same compound?
A: 35 g/L

Q: And the MIC (strain BX_00335.0: BW25113 wild type, pSmart-HC-Amp-prs, M9 + Amp 100 μg/mL)?
A: 35 g/L

Q: What about the MIC (strain BX_00336.0: BW25113 wild type, pSmart-HC-Amp-nrdAB, M9 + Amp 100 μg/mL) of the same compound?
A: 35 g/L

Q: What about the MIC (strain BX_00337.0: BW25113 wild type, pSmart-HC-Amp-nrdEF, M9 + Amp 100 μg/mL) of the same compound?
A: 35 g/L

Q: And the MIC (strain BX_00352.0: BW25113 wild type, pSmart-LC-Kan-metC C1, M9 + Amp 100 μg/mL)?
A: 35 g/L

Q: And the MIC (strain BX_00353.0: BW25113 wild type, pSmart-HC-Amp-metC, M9 + Amp 100 μg/mL)?
A: 45 g/L

Q: What about the MIC (strain BX_00354.0: BW25113 wild type, pSmart-HC-Amp-cynTS, M9 + Amp 100 μg/mL) of the same compound?
A: 45 g/L

Q: What about the MIC (strain BX_00356.0: BW25113 wild type, pSmart-HC-Amp-LysA, M9 + Amp 100 μg/mL) of the same compound?
A: 30 g/L

Q: What about the MIC (strain BX_00357.0: BW25113 wild type, pKK223-aroH*445, M9 + Amp 100 μg/mL + 1 mM IPTG) of the same compound?
A: 30 g/L

Q: And the MIC (strain BX_00359.0: BW25113 wild type, pKK223-aroH*457, M9 + Amp 100 μg/mL + 1 mM IPTG)?
A: 35 g/L

Q: What about the MIC (strain BX_00361.0: BW25113 wild type, pACYC177 (Kan only)-cynTS, M9 + Kan 20 μg/mL) of the same compound?
A: 35 g/L

Q: And the MIC (strain BX_00362.0: BW25113 wild type, pACYC177 (Kan only)-aroH, M9 + Kan 20 μg/mL + 1 mM IPTG)?
A: 30 g/L

Q: What about the MIC (strain BX_00363.0: BW25113 wild type, pACYC177 (kan only)-speB, M9 + Kan 20 μg/mL) of the same compound?
A: 35 g/L

Q: What about the MIC (strain BX_00364.0: BW25113 wild type, pACYC177 (Kan only)-metE (Version1) (SS090608_13), M9 + Kan 20 μg/mL + 1 mM IPTG) of the same compound?
A: 35 g/L

Q: What about the MIC (strain BX_00365.0: BW25113 wild type, pACYC177 (Kan only)-metC (Version1) (SS090608_17), M9 + Kan 20 μg/mL) of the same compound?
A: 35 g/L

Q: And the MIC (strain BX_00368.0: BW25113 wild type, pBT-3-cynTS, M9 + Cm (20 μg/mL))?
A: 30 g/L

Q: And the MIC (strain BX_00370.0: BW25113 wild type, pBT-3-speB, M9 + Cm (20 μg/mL))?
A: 30 g/L

Q: And the “% Increase Over Control” value (strain BX_00301.0 (pSmart-LC-Kan-folA-C1))?
A: 40%

Q: And the “% Increase Over Control” value (strain BX_00302.0 (pSmart-LC-Kan-folA-ORF))?
A: 20%

Q: And the “% Increase Over Control” value (strain BX_00304.0 (pSmart-LC-Kan-menA-ORF))?
A: 40%

Q: What about the “% Increase Over Control” value (strain BX_00305.0 (pSmart-LC-Kan-pheA-C1)) of the same compound?
A: 40%

Q: What about the “% Increase Over Control” value (strain BX_00307.0 (pSmart-LC-Kan-tyrA-C1)) of the same compound?
A: 40%

Q: What about the “% Increase Over Control” value (strain BX_00309.0 (pSmart-LC-Kan-cynTS)) of the same compound?
A: 40%

Q: And the “% Increase Over Control” value (strain BX_00310.0 (pSmart-LC-Kan-glyA))?
A: 40%

Q: And the “% Increase Over Control” value (strain BX_00312.0 (pSmart-LC-Kan-serA))?
A: 40%

Q: And the “% Increase Over Control” value (strain BX_00313.0 (pSmart-LC-Kan-folD))?
A: 20%

Q: What about the “% Increase Over Control” value (strain BX_00314.0 (pSmart-LC-Kan-aroE)) of the same compound?
A: 40%

Q: And the “% Increase Over Control” value (strain BX_00315.0 (pSmart-LC-Kan-aroKB C1))?
A: 40%

Q: What about the “% Increase Over Control” value (strain BX_00317.0 (pSmart-LC-Kan-ilvA operon)) of the same compound?
A: 40%

Q: What about the “% Increase Over Control” value (strain BX_00318.0 (pSmart-LC-Kan-cysM)) of the same compound?
A: 40%

Q: And the “% Increase Over Control” value (strain BX_00319.0 (pK223-aroH))?
A: 50%

Q: And the “% Increase Over Control” value (strain BX_00321.0 (pK223-ct-his-thrA))?
A: 75%

Q: What about the “% Increase Over Control” value (strain BX_00322.0 (pJ61-speFED)) of the same compound?
A: 40%

Q: What about the “% Increase Over Control” value (strain BX_00323.0 (pJ61-aroG)) of the same compound?
A: 40%

Q: What about the “% Increase Over Control” value (strain BX_00324.0 (pJ61-thrA)) of the same compound?
A: 40%

Q: What about the “% Increase Over Control” value (strain BX_00325.0 (pJ61-asd)) of the same compound?
A: 40%

Q: What about the “% Increase Over Control” value (strain BX_00326.0 (pJ61-ilvA)) of the same compound?
A: 40%

Q: What about the “% Increase Over Control” value (strain BX_00327.0 (pJ61-cysM)) of the same compound?
A: 40%

Q: What about the “% Increase Over Control” value (strain BX_00334.0 (pSmart-HC-Amp-cadA)) of the same compound?
A: 60%

Q: What about the “% Increase Over Control” value (strain BX_00335.0 (pSmart-HC-Amp-prs)) of the same compound?
A: 40%

Q: What about the “% Increase Over Control” value (strain BX_00336.0 (pSmart-HC-Amp-nrdAB)) of the same compound?
A: 40%

Q: And the “% Increase Over Control” value (strain BX_00337.0 (pSmart-HC-Amp-nrdEF))?
A: 40%

Q: What about the “% Increase Over Control” value (strain BX_00352.0 (pSmart-LC-Kan-metC C1)) of the same compound?
A: 40%

Q: What about the “% Increase Over Control” value (strain BX_00353.0 (pSmart-HC-Amp-metC)) of the same compound?
A: 80%

Q: What about the “% Increase Over Control” value (strain BX_00354.0 (pSmart-HC-Amp-cynTS)) of the same compound?
A: 80%

Q: What about the “% Increase Over Control” value (strain BX_00356.0 (pSmart-HC-Amp-LysA)) of the same compound?
A: 20%

Q: And the “% Increase Over Control” value (strain BX_00357.0 (pKK223-aroH*445))?
A: 50%

Q: What about the “% Increase Over Control” value (strain BX_00358.0 (pKK223-aroH*447)) of the same compound?
A: 75%

Q: And the “% Increase Over Control” value (strain BX_00359.0 (pKK223-aroH*457))?
A: 75%

Q: What about the “% Increase Over Control” value (strain BX_00361.0 (pACYC177 (Kan only)-cynTS)) of the same compound?
A: 40%

Q: And the “% Increase Over Control” value (strain BX_00362.0 (pACYC177 (Kan only)-aroH))?
A: 20%

Q: And the “% Increase Over Control” value (strain BX_00363.0 (pACYC177 (kan only)-speB))?
A: 40%

Q: And the “% Increase Over Control” value (strain BX_00364.0 (pACYC177 (Kan only)-metE))?
A: 40%

Q: And the “% Increase Over Control” value (strain BX_00365.0 (pACYC177 (Kan only)-metC))?
A: 40%

Q: What about the “% Increase Over Control” value (strain BX_00368.0 (pBT-3-cynTS)) of the same compound?
A: 20%

Q: What about the “% Increase Over Control” value (strain BX_00370.0 (pBT-3-speB)) of the same compound?
A: 20%
